According to patent US8257734B2, “PQS and its conjugates as adjuvants and their uses in pharmaceutical compositions” (Helmhotlz-Zentrum Fuer Infektions-Forschung GmbH, priority 2005, dated 2012):
Entries after “also recorded” stand apart in the source; their conditions may differ.

What was measured:
[1] = system: splenic IFNγ, IL-2 and IL-4 producing cells; experiment: ELISPOT of cytokine producing spleen cells from vaccinated mice; type: in vivo; settings: for splenic IL-2 producing cells / splenic IL-4 producing cells: restimulation with β-Gal protein
Method: Experimental protocol: Spleens from vaccinated mice were removed and pooled for analysis of cellular immune responses. […] Spleen cell suspensions were adjusted to 5×10^6 cells/ml in complete medium, cells were seeded with 100 μl per well in a flat-bottomed 96-well microtiter plate (Nunc) and plates were incubated for 4 days in the presence of different concentrations of soluble β-gal.
For coating ELISPOT plates, said plates were incubated with 100 μl/well of purified capture antibody (10 μg/ml in coating buffer) at 4° C. overnight. […] The activated cells were seeded at 100 μl per well and incubate at 37° C., in a 5% CO2 humidified incubator for 24 hours or 48 h hours. After 5× washing steps with washing buffer and 1× step with distilled water, 100 μl/well of the biotinylated detection antibody with a concentration of 1 μg/ml in Assay Diluent was added and incubated at room temperature for 2 hrs. After further washing steps 100 μl/well of the AV-HRP at 1/1000 dilution in Assay Diluent was added and incubated at room temperature for 30 minutes. After further washing steps 100 μl/well of AEC Substrate Solution was added and developed at room temperature for 10-60 minutes until visible spots appeared. After washing steps with (3×) with 200 μl/well distilled water, the plates were air-dried and analyzed by counting the spots by an ELISPOT reader. Each concentration was tested in triplicates.

TNF-alpha = settings: cited from earlier work
[2] = system: human peripheral blood mononuclear cells; settings: stimulated with the lectin ConA; cited from earlier work
β-gal-specific IgG = experiment: β-gal-specific serum IgG ELISA after immunization with β-gal plus adjuvant; type: in vivo, BALB/c (H-2d) mice; settings: 30 μg β-gal + 10 μg adjuvant, vs β-gal alone
Method: Experimental protocol: six-eight weeks-old female BALB/c (H-2d) mice were purchased from Harlan Winkelmann GmbH (Borchen, Germany) and treated in accordance with local and European Community guidelines. Groups of 5 mice each were immunized on day 1, 14 and 28 with 30 μg of β-gal (Boehringer, Mannheim, Germany), alone or as an admixture with 10 μg PQS-PEG or with 10 μg PQS (structure of said compounds are shown in FIG. 1). For intranasal (i.n.) immunization, 10 μl were applied to each naris, whereas for the s.c. injection β-gal with or without c-PQS-PEG or PQS, respectively, was resuspended in a volume of 20 μl PBS per animal. Serum samples were collected at day 38 after immunization and stored at −20° C. prior to determination of β-gal-specific antibodies. 96-well Nunc-Immuno MaxiSorp assay plates (Nunc, Roskilde, Denmark) were coated with 100 μl of β-gal (Boehringer, Mannheim, Germany) at 5 μg/ml in 0.05 M carbonate buffer (pH 8.2) per well. Serial two-fold dilutions of sera in PBS with 1% BSA and 0.05% Tween 20 were added (100 μl/well), and plates incubated for 16 h at 37° C. After washing, biotinylated γ-chain-specific goat anti-mouse IgG (Sigma Chemie, Deisenhofen, Germany) was added, and plates were incubated for an additional 1 h at 37° C. After four washes, 100 μl of peroxidase-conjugated streptavidin (Pharmingen) was added to cells and plates incubated at 37° C. for 30 min.

[3] = system: spleenocytes stimulated with ConA; settings: cited from earlier work
β-gal-specific IgA = β-gal-specific IgA in lung and vaginal lavages after i.n. immunization; type: in vivo, BALB/c (H-2d) mice; settings: day 38, vs β-gal alone
Method: Experimental protocol: at day 38, mice were sacrificed and the final sampling was performed. Vaginal and lung lavages were obtained by flushing the organs with 1 ml of PBS supplemented with 50 mM EDTA, 0.1% BSA, and 10 mM PMSF. Lavages were then centrifuged to remove debris (10 min at 3000×g), and supernatant fluids were stored at −20° C. To determine the concentration of total IgA present in the lung and vaginal lavages, serial dilutions of the corresponding samples were incubated in microtiter plates that were previously coated with goat anti-mouse IgA (Sigma Chemie), as capture antibodies (100 μl/well). Serial dilutions of purified mouse IgA (Sigma Chemie) were used to generate a standard curve.

spleen cells = experiment: [3H]thymidine proliferation of spleen cells from vaccinated mice restimulated in vitro with β-gal; type: in vivo, BALB/c (H-2d) mice; settings: day 38, vs β-gal alone
Method: Experimental protocol: Spleens were removed and pooled for analysis of cellular immune responses. […] Spleen cell suspensions were adjusted to 5×10^6 cells/ml in complete medium, cells were seeded with 100 μl per well in a flat-bottomed 96-well microtiter plate (Nunc) and plates were incubated for 4 days in the presence of different concentrations of soluble β-gal. That is, T cell mediated immune responses were investigated at day 38 by measuring the proliferation after in vitro restimulation with β-Gal of cells which have been recovered from spleens before. […] Each concentration was tested in quadruplicate. During the final 18 h of culture, 1 μCi of [3H]thymidine (Amersham International, Freiburg, Germany) was added to each well. […] The results are expressed as the arithmetic mean of [^3H]thymidine uptake in cpm.
Thirty eight days following vaccination, spleens cells were purified, re-stimulated in vitro in the presence of various amounts of β-galactosidase and their proliferative capacity was estimated by measuring the incorporation of [3H]thymidine into their DNA using a β-scintillation counter.

[4] = system: IFN-γ, IL-2, IL-4, IL-5, and TNFα; experiment: Cytometric Bead Array of cytokines in supernatants of in vitro re-stimulated spleen cells; type: in vivo, mice; settings: vs β-Gal without additional adjuvant
Method: Experimental protocol: Spleens from vaccinated mice were removed and pooled for analysis of cellular immune responses. The protocol for vaccination was identical to the protocol described in Example 2. Cells were grown in RPMI 1640 supplemented with 10% fetal calf serum, 100 U/ml of penicillin, 50 μg/ml of streptomycin, 5×10^−5 M 2-mercaptoethanol and 1 mM L-glutamine (GIBCO BRL, Karlsruhe, Germany) and maintained at 37° C. in a humidified 5% CO2 atmosphere. Spleen cell suspensions were adjusted to 5×10^6 cells/ml in complete medium, cells were seeded with 100 μl per well in a flat-bottomed 96-well microtiter plate (Nunc) and plates were incubated for 4 days in the presence of different concentrations of soluble β-gal.
To characterize the type of Th response stimulated following immunization, the content of IFN-γ, IL-2, IL-4, IL-5, and TNFα was measured in supernatants from in vitro re-stimulated spleen cells (FIG. 6A for s.c. immunization and FIG. 6B for i.n. immunization) by the Cytometric Bead Array. Culture supernatants from proliferating cells were collected on days 2 and 4, and stored at −70° C. […] The probes were analyzed subsequently by flow cytometry as described in the protocol of BD.

[5] = system: β-gal antigen-specific IgG1; experiment: Isotyp ELISA of β-gal-specific IgG subclasses in sera of vaccinated mice; type: in vivo
Method: Isotyp ELISA: 96-well Nunc-Immuno MaxiSorp assay plates (Nunc, Roskilde, Denmark) were coated with 100 μl of β-gal (Boehringer, Mannheim, Germany) at 5 μg/ml in 0.05 M carbonate buffer (pH 9.6) per well. Serial two-fold dilutions of sera or lavages in PBS with 1% BSA and 0.05% Tween 20 were added (100 μl/well), and plates incubated for 2 h at 37° C. After washing, biotin-conjugated rat anti-mouse IgG1 or IgG2a (Pharmingen, Hamburg, Germany) were added to determine IgG subclasses. Plates were incubated for an additional 1 h at 37° C. After four washes, 100 μl of peroxidase-conjugated streptavidin (Pharmingen) was added to cells and plates incubated at 37° C. for 30 min. […] To determine the concentration of IgG subclasses in serum, standard curves were obtained by coating the wells with an isotype-specific goat anti-mouse IgG, and then by incubating with purified mouse IgG1 or IgG2 antibodies (Dianova, Hamburg, Germany).

P815 target cells = experiment: Cr51 release cytotoxicity assay with effector cells of immunized mice; type: in vivo; settings: mice immunized with β-gal/PQS subcutaneously; FIG. 8A; vs non-immunized mice
Method: This system is based on the measurement of the Cr51 release of target cells due to specific lysis. In particular, with the amount of radioactivity detectable in the supernatant, the specific lysis can be calculated.
Prior the Cytotoxicity Assay, P815 target cells were split and resuspended and adjusted to 2×10E6 cells/300 μl DMEM. The P815 cells were incubated with an MHC class I β-gal specific peptide for 1.5 h, while slightly agitating the cells every 15 min to improve binding between the peptide and the MHC class I molecule. After washing the cells, cells were resuspended in 150 μl medium without FCS and cultured for 2 h in the presence of 100 μci 51Chrom. Every 30 min, the cell suspension was agitated slightly. Subsequently, cells were washed twice in DMEM plus 10% FCS to remove unbound 51Cr. The cells were adjusted to […]. The effector cells were diluted serially (1×10E6, 0.5×10E6, 0.25×10E6, and 0.125×10E6). 50 μl of the murine target cells (10000 cells) were added to the effector cells, thus, the ratio of effector cells/target cells is 100:1, 50:1, 25:1, and 12.5:1, respectively. […] 25 or 30 μl, supernatant was taken from each of the wells and radioactivity according to standard practice determined. The specific lysis was calculated taking spontaneous lysis and maximal lysis into account.

IL-2 = settings: cited from earlier work

CCCCCCCC1=Nc2ccccc2C(=O)C1O (centres unmarked) [PQS, 2-heptyl-3-hydroxy-4-quinolone]
splenic IL-2 producing cells ([1]; i.n. route): strong expression | splenic IL-4 producing cells ([1]; i.n. route): strong expression | amounts of IFNγ expressing cells ([1]; i.n. vaccination, compared with s.c. vaccination): lower to the level determined after s.c. vaccination | expression of Th1 and Th2 cytokines after restimulation of spleen cells ([1]; intranasal immunization (FIG. 7B)): increased expression | number of splenic IFNγ producing cells ([1]; parenteral (s.c.) vaccination, restimulation with MHC class I-restricted β-Gal peptide (CD8 epitope), FIG. 7A): increment | splenic IL-2 producing cells ([1]; s.c. route): strong expression | splenic IL-4 producing cells ([1]; s.c. route): strong expression | expression of Th1 and Th2 cytokines after restimulation of spleen cells ([1]; subcutaneous immunization (FIG. 7A)): increased expression | TNF-alpha production (TNF-alpha; at high concentrations): enhances | TNF-alpha release from PMCs (TNF-alpha; at low doses, stimulated with LPS): no effect | proliferation of human peripheral blood mononuclear cells [2]: proliferation inhibiting activity | β-gal specific IgG titer in sera (β-gal-specific IgG; i.n. immunization day 1, 14, 28, sera day 38): increased expression; also recorded: remarkably increased | β-gal specific IgG titer in sera (β-gal-specific IgG; s.c. (parenteral) immunization day 1, 14, 28): remarkably increased | proliferation of spleenocytes [3]: inhibiting activity | β-gal-specific IgA in lung lavage (β-gal-specific IgA): slight increase | β-gal-specific IgA in vaginal lavage (β-gal-specific IgA): slight increase | spleen cell proliferation ([3H]thymidine uptake) after β-gal restimulation (spleen cells; i.n. immunization): efficient adjuvant; also recorded: efficient proliferative response at low amounts of antigen; also recorded: statistically significant increment | spleen cell proliferation ([3H]thymidine uptake) after β-gal restimulation (spleen cells; s.c. immunization): efficient adjuvant; also recorded: further increase in proliferation; also recorded: statistically significant increment | levels of IL-5 ([4]; i.n. route): significantly higher | levels of IL-5 ([4]; s.c. route): significantly higher | antigen-specific antibody response ([5]; i.n. immunization): strong antigen-specific antibody response | antigen specific antibodies of the IgG1 subtype in sera ([5]; intranasal administration, FIG. 5B): strongly increased | expression of the IgG1 isotype in sera ([5]; subcutaneous administration, FIG. 5A): strongly increased | specific lysis of peptide-pulsed target cells by β-gal restimulated CD8+ T-cells (P815 target cells): demonstrates the cytotoxic capacity | IL-2 release from PMCs (IL-2; at low doses, stimulated with ConA): no effect | IL-2 secretion (IL-2): inhibited
